Assay results from patent EP0418990A2, “13-Bromo and 13,14-dibromo ergoline, their preparation and their use” (SCHERING AKTIENGESELLSCHAFT, priority 1989, dated 1991).

Test system: Ratten
Assay: Automatic recording of stereotypies in rats (Horowski method), dopamine-agonist effect
Type: in vivo, männliche Wistar-Ratten
Settings: 60 min after treatment
Excerpt: Die dopaminagonistische Wirkung wurde mit Hilfe der von Horowski beschriebenen Methode der automatischen Registrierung von Stereotypien an Ratten bestimmt (Arzneim. Forsch. 12, 2281-2286, 1978): Unmittelbar nach intraperitonealer Prüfsubstanz- bzw. Vehikelverabreichung werden männliche Wistar-Ratten (90-120 g) einzeln in Zwangskäfige aus Acrylglas gesetzt. Über ein vor dem Kopf der Tiere angebrachtes elektrodynamisches Aufnahmesystem wird die Zahl der Kontakte an einem stählernen Becher mit einem zentralen Metallstab als Folge der stereotypen Kau-, Leck- und Nagebewegungen während 60 Minuten registriert. Die Mittelwerte ± S.E.M. der Anzahl der Kontakte während 60 Minuten für die verschiedenen Behandlungsgruppen, die mit jeweils 12 Tieren besetzt sind, werden berechnet und die Signifikanz der Unterschiede zwischen den Mittelwerten der verschiedenen Prüfsubstanzdosen im Vergleich zur Vehikel-behandelten Kontrollgruppe mit Hilfe der einfachen Varianzanalyse in Verbindung mit dem Dunnett-Test ermittelt.

CCN(CC)C(=O)N[C@H]1C[C@@H]2c3cc(Br)cc4[nH]c(C)c(c34)C[C@H]2N(CC)C1 [CH2CH3, 3-(13-Brom-6-ethyl-2-methyl-8α-ergolinyl)-1,1-diethyl-harnstoff]
Stereotypien(counts pro 60 Minuten) (Mittelwert ± S.E.M.) (dose 0.025 mg/kg intraperitoneal, n=12, vehicle control 2137 ± 849): 1943 ± 472 counts pro 60 Minuten | Stereotypien(counts pro 60 Minuten) (Mittelwert ± S.E.M.) (dose 0.1 mg/kg intraperitoneal, n=12, vehicle control 2137 ± 849): 2470 ± 548 counts pro 60 Minuten | Stereotypien(counts pro 60 Minuten) (Mittelwert ± S.E.M.) (dose 0.39 mg/kg intraperitoneal, n=12, xx: p<0.01 vs. control, vehicle control 2137 ± 849): 7499 ± 1342xx counts pro 60 Minuten | Stereotypien(counts pro 60 Minuten) (Mittelwert ± S.E.M.) (dose 1.56 mg/kg intraperitoneal, n=12, xx: p<0.01 vs. control, vehicle control 2137 ± 849): 8066 ± 1248xx counts pro 60 Minuten | Stereotypien(counts pro 60 Minuten) (Mittelwert ± S.E.M.) (dose 6.25 mg/kg intraperitoneal, n=12, xx: p<0.01 vs. control, vehicle control 2137 ± 849): 7381 ±1336xx counts pro 60 Minuten
